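Here, GI50 denotes the concentration required for 50% inhibition of growth. At the TGI there is no net growth.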
Key:
Assay in all cases: DTP human tumour cell line panel, 384-well format
COLO 205 colon = system: COLO 205 colon
MOLT-4 leukemia = system: MOLT-4 leukemia
HOP-92 NSCLC = system: HOP-92 NSCLC
U251 glioblastoma = system: U251 glioblastoma
EKVX NSCLC = system: EKVX NSCLC
TK-10 renal = system: TK-10 renal
SF-268 CNS = system: SF-268 CNS
HCT-15 colon = system: HCT-15 colon
LOX IMVI melanoma = system: LOX IMVI melanoma
A498 renal = system: A498 renal
HT29 colon = system: HT29 colon
OVCAR-4 ovarian = system: OVCAR-4 ovarian
HCC-2998 colon = system: HCC-2998 colon
PC-3 prostate = system: PC-3 prostate
A549 NSCLC = system: A549 NSCLC
IGROV1 ovarian = system: IGROV1 ovarian
BT-549 breast = system: BT-549 breast
ACHN renal = system: ACHN renal
786-0 renal = system: 786-0 renal
RPMI-8226 leukemia = system: RPMI-8226 leukemia
CAKI-1 renal = system: CAKI-1 renal
HL-60(TB) leukemia = system: HL-60(TB) leukemia
CCRF-CEM leukemia = system: CCRF-CEM leukemia
MDA-MB-468 breast = system: MDA-MB-468 breast
UACC-62 melanoma = system: UACC-62 melanoma
M14 melanoma = system: M14 melanoma
UO-31 renal = system: UO-31 renal
HOP-62 NSCLC = system: HOP-62 NSCLC
NCI-H460 NSCLC = system: NCI-H460 NSCLC
OVCAR-3 ovarian = system: OVCAR-3 ovarian
SNB-75 CNS = system: SNB-75 CNS
NCI-H226 lung = system: NCI-H226 lung
OVCAR-8 ovarian = system: OVCAR-8 ovarian
HCT-116 colon = system: HCT-116 colon
SW-620 colon = system: SW-620 colon
MCF7 breast = system: MCF7 breast
DU-145 prostate = system: DU-145 prostate
NCI/ADR-RES ovarian = system: NCI/ADR-RES ovarian
SF-295 CNS = system: SF-295 CNS
KM12 colon = system: KM12 colon
OVCAR-5 ovarian = system: OVCAR-5 ovarian

CCNCCS(=O)(=O)NC[C@@]1(c2ccccc2)SC(NC(=O)C(C)(C)C)=NN1C(=O)C(C)(C)C
GI50 (COLO 205 colon): < 0.01 µM | TGI (COLO 205 colon): < 0.01 µM | GI50 (MOLT-4 leukemia): < 0.01 µM | TGI (MOLT-4 leukemia): < 0.01 µM | GI50 (HOP-92 NSCLC): < 0.01 µM | TGI (HOP-92 NSCLC): 62 µM | GI50 (U251 glioblastoma): < 0.01 µM | TGI (U251 glioblastoma): > 100 µM | GI50 (EKVX NSCLC): < 0.01 µM | TGI (EKVX NSCLC): > 100 µM | GI50 (TK-10 renal): 26.4 µM | TGI (TK-10 renal): > 100 µM | GI50 (SF-268 CNS): < 0.01 µM | TGI (SF-268 CNS): < 0.01 µM | GI50 (HCT-15 colon): 0.108 µM | TGI (HCT-15 colon): > 100 µM | GI50 (LOX IMVI melanoma): < 0.01 µM | TGI (LOX IMVI melanoma): 22.4 µM | GI50 (A498 renal): < 0.01 µM | TGI (A498 renal): > 100 µM | GI50 (HT29 colon): < 0.01 µM | TGI (HT29 colon): < 0.01 µM | GI50 (OVCAR-4 ovarian): 29.5 µM | TGI (OVCAR-4 ovarian): > 100 µM | GI50 (HCC-2998 colon): < 0.01 µM | TGI (HCC-2998 colon): 24.6 µM | GI50 (PC-3 prostate): < 0.01 µM | TGI (PC-3 prostate): > 100 µM | GI50 (A549 NSCLC): < 0.01 µM | TGI (A549 NSCLC): > 100 µM | GI50 (IGROV1 ovarian): < 0.01 µM | TGI (IGROV1 ovarian): > 100 µM | GI50 (BT-549 breast): < 0.01 µM | TGI (BT-549 breast): 58.9 µM | GI50 (ACHN renal): 52.6 µM | TGI (ACHN renal): > 100 µM | GI50 (786-0 renal): < 0.01 µM | TGI (786-0 renal): 28.6 µM | GI50 (RPMI-8226 leukemia): < 0.01 µM | TGI (RPMI-8226 leukemia): < 0.01 µM | GI50 (CAKI-1 renal): 0.0427 µM | TGI (CAKI-1 renal): > 100 µM | GI50 (HL-60(TB) leukemia): < 0.01 µM | TGI (HL-60(TB) leukemia): < 0.01 µM | GI50 (CCRF-CEM leukemia): < 0.01 µM | TGI (CCRF-CEM leukemia): < 0.01 µM | GI50 (MDA-MB-468 breast): < 0.01 µM | TGI (MDA-MB-468 breast): < 0.01 µM | GI50 (UACC-62 melanoma): < 0.01 µM | TGI (UACC-62 melanoma): > 100 µM | GI50 (M14 melanoma): < 0.01 µM | TGI (M14 melanoma): < 0.01 µM | GI50 (UO-31 renal): 63.3 µM | TGI (UO-31 renal): > 100 µM | GI50 (HOP-62 NSCLC): < 0.01 µM | TGI (HOP-62 NSCLC): 75.6 µM | GI50 (NCI-H460 NSCLC): < 0.01 µM | TGI (NCI-H460 NSCLC): < 0.01 µM | GI50 (OVCAR-3 ovarian): < 0.01 µM | TGI (OVCAR-3 ovarian): < 0.01 µM | GI50 (SNB-75 CNS): < 0.01 µM | TGI (SNB-75 CNS): 48.7 µM | GI50 (NCI-H226 lung): 74.6 µM | TGI (NCI-H226 lung): > 100 µM | GI50 (OVCAR-8 ovarian): < 0.01 µM | TGI (OVCAR-8 ovarian): > 100 µM | GI50 (HCT-116 colon): < 0.01 µM | TGI (HCT-116 colon): > 100 µM | GI50 (SW-620 colon): < 0.01 µM | TGI (SW-620 colon): 62.6 µM | GI50 (MCF7 breast): < 0.01 µM | TGI (MCF7 breast): 42.7 µM | GI50 (DU-145 prostate): < 0.01 µM | TGI (DU-145 prostate): > 100 µM | GI50 (NCI/ADR-RES ovarian): 3.42 µM | TGI (NCI/ADR-RES ovarian): > 100 µM | GI50 (SF-295 CNS): 0.0177 µM | TGI (SF-295 CNS): > 100 µM | GI50 (KM12 colon): < 0.01 µM | TGI (KM12 colon): > 100 µM | GI50 (OVCAR-5 ovarian): < 0.01 µM | TGI (OVCAR-5 ovarian): > 100 µM
